Assay results published in patent US8852876B2, “Label free biosensors and cells” (Corning Incorporated, priority 2008, dated 2014).

How the values were obtained:
[1] = system: actin filaments in A431 cells; experiment: Texas Red-phalloidin fluorescence imaging; format: cell-based, human; details: 100 nM trypsin or 40 unit/ml thrombin; ~95% confluency
Procedure: Cells were grown on Corning® Epic™ 96 well biosensor microplates, starved for overnight with serum-free DMEM medium, chased with either trypsin or thrombin for certain time, fixed with 4% paraformaldehyde, permeabilized in phosphate-buffered saline (PBS) containing 0.2% Triton, and blocked with 1% bovine serum albumin (BSA). Afterwards, cells were incubated with 0.5 μM Texas Red-labeled phalloidin for 1 h at room temperature, and washed. After final washes and mounting, cells were examined with a 40× objective, equipped in a Zeiss Axioplan fluorescence microscope.

[2] = system: protease activated receptors PAR1 and PAR2; format: cell-based, human; details: interval about 1 hour
In short: (§1)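 A431 cells at passage 3-5 grown in DMEM/10% FBS at 37° C, 5% CO2 to ~95% confluency (~2-4 days). Compounds and PAR agonists prepared in 1×HBSS to match the refractive index of the cell medium for dynamic mass redistribution (DMR) read-out.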

[3] = target: T1, protease activated receptors PAR1 and PAR2 (Homo sapiens, UniProt P25116); format: cell-based; details: quiescent A431; n=3
T1 construct: A431 cells which endogenously express PAR1 and PAR2; endogenous in cells; host or cells: A431
T1 sequence (P25116 22-425): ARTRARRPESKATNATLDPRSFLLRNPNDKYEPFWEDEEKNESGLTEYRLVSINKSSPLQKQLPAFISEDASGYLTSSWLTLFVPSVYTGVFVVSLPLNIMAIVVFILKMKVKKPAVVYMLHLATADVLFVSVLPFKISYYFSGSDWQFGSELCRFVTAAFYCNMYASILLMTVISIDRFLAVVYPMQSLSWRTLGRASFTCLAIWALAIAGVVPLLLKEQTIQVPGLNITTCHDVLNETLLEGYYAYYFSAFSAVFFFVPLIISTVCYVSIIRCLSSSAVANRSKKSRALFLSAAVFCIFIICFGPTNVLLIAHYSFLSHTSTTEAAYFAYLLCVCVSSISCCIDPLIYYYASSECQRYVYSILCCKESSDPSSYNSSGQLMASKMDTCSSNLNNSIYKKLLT
In short: as §1

[4] = system: protease activated receptors PAR1 and PAR2; experiment: Fluo-3 Ca2+ mobilization assay with PAR agonists; format: cell-based, human
In short: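 A431 cells (passage 3–5), serum-starved overnight, loaded with 4 μM Fluo-3 for 1 h in HBSS/20 mM HEPES pH 7.0 with 2.5 mM probenecid. PAR agonist added and calcium fluorescence recorded over 6 min at 6 s intervals, room temperature.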

[5] = target: T2, PAR1 receptor (Cricetulus griseus, UniProt A0A8C2QJ57); experiment: Endpoint wavelength-shift measurement, 384 well biosensor plate; format: cell-based, Chinese hamster; details: CHO cells; 5 minutes after addition
T2 construct: The PAR1 receptor is endogenously expressed in CHO cells; endogenous in cells; host or cells: CHO
T2 sequence (A0A8C2QJ57 22-428): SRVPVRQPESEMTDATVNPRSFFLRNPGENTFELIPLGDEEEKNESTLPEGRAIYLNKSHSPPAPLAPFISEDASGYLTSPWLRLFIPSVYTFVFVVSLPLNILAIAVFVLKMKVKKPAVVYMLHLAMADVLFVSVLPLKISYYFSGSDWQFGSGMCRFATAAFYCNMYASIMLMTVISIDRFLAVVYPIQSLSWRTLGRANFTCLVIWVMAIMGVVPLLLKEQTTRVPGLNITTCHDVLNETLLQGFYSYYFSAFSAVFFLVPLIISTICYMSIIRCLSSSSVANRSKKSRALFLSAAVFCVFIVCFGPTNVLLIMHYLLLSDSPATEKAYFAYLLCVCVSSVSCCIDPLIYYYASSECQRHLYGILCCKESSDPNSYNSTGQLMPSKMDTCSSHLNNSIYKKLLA
Procedure: The two time points were right before the compound addition (the baseline point), and 5 minutes after the compound addition (the measured point). The difference between two endpoints reflects the total amplitude of the P-DMR event mediated by thrombin—a PAR1 receptor agonist. Here a different cell line—CHO cells was used. The PAR1 receptor is endogenously expressed in CHO cells. The cells become partially quiescent by culturing the cells in the DMEM medium for 4 hours before the thrombin stimulation. In this example, a 384 well Coring Epic biosensor plate was used. Each well contains CHO cells with a confluency of ˜90%. Half of the wells were treated with thrombin at 40 unit/ml, whereas other half of the wells were treated with the buffer HBSS only. Since the agonist-induced activation of both B2 in A431 and PAR1 in CHO cells leads to Gq signaling, the significance of this assay results is that the Gq-type optical signature is at least universal in both cell lines. By using similar endpoint measurements, one is able to screen GPCR modulators against different endogenous targets in different cells.
The two time points were right before the compound addition (the baseline point), and 5 minutes after the compound addition (the measured point). The CHO cells were treated with thrombin at different doses. […]

[6] = system: endogenous GPCRs in A431 cells; experiment: DMR optical biosensor profiling of GPCR agonists; format: cell-based, human; details: quiescent A431; first class = Gq-type, second = Gs-type, third = Gi-type, fourth = no significant DMR
Procedure: Human epidermoid carcinoma A431 cells (American Type Cell Culture) were grown in Dulbecco's modified Eagle's medium (DMEM) supplemented with 10% fetal bovine serum (FBS), 4.5 g/liter glucose, 2 mM glutamine, and antibiotics. ˜3-7.5×10^4 cells at passage 3 to 5 suspended in 200 μl the DMEM medium containing 10% FBS were placed in each well of a 96 well microplate. Similarly ˜1-2×10^4 cells in 50 μl the growth medium were placed in each well of a 384 well microplate. After cell seeding, the cells were cultured at 37° C. under air/5% CO2 until ˜95% confluency was reached (˜2-4 days).
A Corning® Epic™ angular interrogation system with transverse magnetic or p-polarized TM0 mode was used for all studies. Several extra actions were taken to minimize the unwanted effects. First, to minimize the bulk index changes when a compound solution is introduced, 1×HBSS buffer without any probenecid was used to dilute all the compounds, whereas the DMEM buffer only was used to starve the cells. Secondly, to facilitate the cell responses as well as to rapidly reach a steady state when the sensor plates having cells were placed in the system at room temperature, the cells were pre-starved with the DMEM buffer without any FBS for a prolonged period of time (typically 20±2 hours), and the quiescent cells were directly used for assays without any wash.
For kinetics measurements, the cultured cells (˜95% confluency) were starved for about 20 hours with DMEM alone at 37° C. under air/5% CO2. Afterwards, the sensor microplate containing cells was placed into the optical system, and the cell responses were recorded before and after addition of a solution at room temperature. […] All studies were carried out at room temperature with the lid of the microplate on except for a short period of time (˜seconds) when the solution was introduced, in order to minimize the effect of temperature fluctuation and evaporative cooling. The unit of the responses indicated herein was a change in pixel of the central position of the resonant band of each sensor as imaged by a CCD camera; 1 unit equals to ˜5.82×10^−4 refractive index changes, based on an experimental normalization protocol, which uses the concentration-dependent responses of both glycerol and dimethyl sulfoxide.
The panel of agonists were used individually to stimulate quiescent A431 cells. The dose-dependent and kinetic responses were recorded and analyzed. In a typical kinetic measurement, the angular shift of resonant lights of each sensor induced by an agonist is monitored in real time and plotted as a function of time. An increased signal (P-DMR) means an increase in the amount of bio-molecules within the sensing volume (˜120 nm); conversely, a decreased signal (N-DMR) means a decrease in the amount of bio-molecules within the sensing volume. The sensing volume, also known as penetration depth, is an intrinsic property of the coupled light within the waveguide film, which creates an evanescent wave extending into the cell layer and the medium.

With thrombin the “Reorganization of actin filaments” value [1] was “triggered significant cytoskeletal reorganization after about 10 min”, the “Effect of preceding stimulation on trypsin-induced DMR signal” value [2] was “significantly suppresses but not completely eliminates the trypsin-induced DMR signal” and the “Apparent EC50 (P-DMR amplitude, Gq-type)” value [3] was 9.6±2.0 unit/ml. For the same substance, the “Effect of preceding stimulation on thrombin-mediated [Ca2+]i elevation” value ([4]; 40 unit/ml thrombin twice) was “totally blocked the [Ca^2+]i elevation mediated by 40 unit/ml thrombin”, the “Concentration required to induce a maximal response” value ([4]; [Ca2+]i) was 40 unit/ml and the “Effect of preceding stimulation on trypsin-induced [Ca2+]i elevation” value ([4]; interval 6 min, 200 nM trypsin) was “slightly suppressed the trypsin-induced [Ca^2+]i elevation”. The “EC50 of [Ca2+]i increase” value ([4]; quiescent A431, Fluo-3) was 6±1 unit/ml, the “Maximal [Ca2+]i elevation” value ([4]; quiescent A431, Fluo-3) was 48.2±3.5% and the EC50 ([4]; quiescent A431, Fluo-3, converted from unit/ml, read-out: EC50 of [Ca2+]i increase, equivalent) was 60 ± 10 nM. For the same substance, the “Apparent EC50 (endpoint wavelength shift)” value [5] was 12.5 unit/ml and the “Class of optical signature (DMR) induced by agonist” value [6] was “first class of optical signatures”.
